Read-outs that look alike come from different tables or passages of the source.
Assays:
[1] = target: CDK7/cyclinH/MAT1 trimeric complex (Homo sapiens (Human), UniProt P50613); experiment: In vitro CDK7 assay, potency of irreversible covalent inhibitors (kinact/KI)
[2] = test system: RNA polymerase II Serine 5 phosphorylation in A549 cells overexpressing CDK7 mutant (C312S); experiment: Imaging-based cellular RNA PolII Ser5 phosphorylation assay in A549 cells overexpressing CDK7-mutant (C312S); format: cell-based, human; conditions: Homo sapiens, A549, A549 cells overexpressing CDK7 mutant (C312S); read-out: CDK7_ A549 mutant hCDK7(pIC50) (converted)
In short: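 A stably transduced A549 pool overexpressing CDK7 C312S, a mutant that blocks covalent binding at Cys312, while retaining endogenous wild-type CDK7 was used. Ser5 phosphorylation was measured by imaging, and IC50 values were derived.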

[3] = test system: RNA polymerase II Serine 5 phosphorylation (CDK7) in A549 cells
Text: To evaluate inhibition of CDK7 kinase activity, a 384-well automated imaging assay was used. This assay detects Serine 5 phosphorylation on a unique heptapeptide sequence in the C-terminal domain of Rpb1 subunit of RNA polymerase II, the downstream substrate of CDK7. This heptapeptide sequence is repeated up to 52 times in the CTD of Rpb1.
RNA Polymerase II Serine 5 phosphorylation was detected using a specific rabbit Phospho-Rpb1 CTD (Ser5) antibody. A549 adenocarcinoma human alveolar basal epithelial cells were seeded in 20 μl medium (DMEM supplemented with 1% Fetal Bovine Serum (heat inactivated 30′ 56° C.), 2 mM L-glutamine, 50 U/ml penicillin 50 μg/ml streptomycin, 1 mM sodium pyruvate and 50 mM hepes) at 1000 cells/well and cultured in poly-D-lysine coated μclear 384 black plates for 20 hours at 37° C. and 5% CO2.
After incubation cells were challenged with compound for 3 hours at 37° C. and 5% CO2. DMSO was used as high control and as low control 10 μM of the following reference compound was used:
40 nl of test compounds and controls were spotted in cell plates using Echo Liquid Handler (Echo 550, Labcyte). Incubation was followed by 20 minutes fixation with 20 μl 10% formaldehyde at room temperature. Medium/formaldehyde solution was removed, plates were washed 3 times with 30 μl D-PBS (w/o Ca^2+ and Ma^2+) and permeabilization was done by adding 20 μl ice cold methanol for 20 minutes. Cells were washed again 3 times with 30 μl D-PBS and 20 μl blocking buffer (25 ml fetal bovine serum in 500 ml D-PBS) was added for 1 hour.
After removing blocking buffer 20 μl 1/1000 primary antibody rabbit Phospho-Rpb1 CTD (Ser5) antibody was added which binds to the phosphorylated Serine5 of the heptapeptide sequences in the CTD of Rpb1. […] Last, plates were washed 2 times with 30 μl D-PBS and wells were filled with 40 μL D-PBS, plates were sealed (Thermowell sealing tape) and stored at 4° C. until reading. Plates were read with Opera Phenix (Perkin Elmer) with 10× air objective. Data were calculated and analyzed in Phaedra.
IC50 values were calculated using the following formula
Average value of all HC's and all LC's are used for normalizations.
% Effect=100−(sample-LC)/(HC-LC)×100
% Control=(sample/HC)×100
From this an IC50 value can be obtained. An estimate of the slope of the plot in terms of the Hill coefficient is also obtained.

[4] = CDK7 (20 nM enz.) (KI, μM), 20 nM enz.
[5] = read-out: CDK7 (20 nM enz.) (kinact, s^−1), 20 nM enz.
[6] = read-out: CDK7 (20 nM enz.) (kinact/ KI, M^−1*s^−1), 20 nM enz.
[7] = read-out: CDK7 (kinact, s^−1), Table B
[8] = read-out: CDK7 (kinact/KI, M^−1*s^−1), Table B
[9] = read-out: CDK7 (20 nM enz.) (kobs/[I], M^−1*s^−1), 20 nM enz.

CDK7/cyclinH/MAT1 trimeric complex, sequence (P50613 whole entry): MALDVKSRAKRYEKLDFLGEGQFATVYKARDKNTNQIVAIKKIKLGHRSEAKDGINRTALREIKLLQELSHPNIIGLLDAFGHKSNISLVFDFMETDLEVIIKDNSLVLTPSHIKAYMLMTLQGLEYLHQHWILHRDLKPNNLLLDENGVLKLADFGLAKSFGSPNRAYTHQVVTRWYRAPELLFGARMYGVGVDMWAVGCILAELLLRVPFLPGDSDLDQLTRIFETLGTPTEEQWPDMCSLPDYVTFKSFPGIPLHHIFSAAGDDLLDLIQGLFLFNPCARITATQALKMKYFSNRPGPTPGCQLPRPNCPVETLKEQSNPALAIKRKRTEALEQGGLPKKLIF
CDK7/cyclinH/MAT1 trimeric complex, sequence (P51946 whole entry partner): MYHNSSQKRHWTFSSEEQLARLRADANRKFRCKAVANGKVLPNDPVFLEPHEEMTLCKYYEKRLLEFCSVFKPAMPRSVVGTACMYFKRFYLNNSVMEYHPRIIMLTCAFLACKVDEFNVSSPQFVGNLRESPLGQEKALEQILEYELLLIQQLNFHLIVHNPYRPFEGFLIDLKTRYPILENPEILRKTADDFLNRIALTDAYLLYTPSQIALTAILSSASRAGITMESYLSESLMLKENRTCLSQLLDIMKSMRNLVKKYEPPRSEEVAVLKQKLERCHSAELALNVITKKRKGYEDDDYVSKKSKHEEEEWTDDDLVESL
CDK7/cyclinH/MAT1 trimeric complex, sequence (P51948 whole entry partner): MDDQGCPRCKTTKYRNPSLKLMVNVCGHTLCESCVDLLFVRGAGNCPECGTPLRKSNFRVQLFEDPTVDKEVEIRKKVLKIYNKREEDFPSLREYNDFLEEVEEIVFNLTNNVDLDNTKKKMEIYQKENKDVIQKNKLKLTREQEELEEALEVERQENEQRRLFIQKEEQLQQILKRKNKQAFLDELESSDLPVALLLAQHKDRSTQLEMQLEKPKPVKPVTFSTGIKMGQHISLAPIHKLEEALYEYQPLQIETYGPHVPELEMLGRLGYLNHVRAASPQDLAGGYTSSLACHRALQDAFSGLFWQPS

| Compound | Ki [1, 4] [µM] | kinact [1, 5] [s⁻¹] | kinact/KI [1, 6] [M⁻¹ s⁻¹] | IC50 [2] [nM] | melting point [°C] | IC50 [3] [nM] | Ki ([1]; CDK7 (KI(μM)), Table B) [µM] | kinact [1, 7] [s⁻¹] | kinact/KI [1, 8] [M⁻¹ s⁻¹] | kinact/KI [1, 9] [M⁻¹ s⁻¹] | CDK7 (20 nM enz.) (kinact/ KI, M^−1*s^−1) ([1]; 20 nM enz.) [M⁻¹ s⁻¹] |
| --- | --- | --- | --- | --- | --- | --- | --- | --- | --- | --- | --- |
| C=CC(=O)N1CCN(C2CCN(c3cc(C)c4c(c3)Nc3ncnc(N5CCS(=O)(=O)CC5)c3CO4)CC2)CC1 [compound 91] | 0.0406 | 5.75e-05 | 1420 | > 10000 | 267 | 110 | – | – | – | – | – |
| C=CC(=O)N1CCC(N2CC(c3cc4c(c(C)n3)OCc3c(ncnc3N3CCS(=O)(=O)CC3)N4)C2)C1 (centres unmarked) [compound 77] | 0.172 | 3.83e-05 | 223 | > 10000 | > 300 | 4070 | – | – | – | – | – |
| C=CC(=O)N1CC(N2CCC(c3cc(C)c4c(c3)Nc3ncnc(N5CCS(=O)(=O)CC5)c3[C@@H](C)O4)CC2)C1 (single isomer, unassigned) [compound 84] | 0.148 | 8.33e-05 | 563 | > 10000 | > 300 | 112 | – | – | – | – | – |
| CC#CC(=O)N1CCN(C2CCN(c3cc(C)c4c(c3)Nc3ncnc(N5CCS(=O)(=O)CC5)c3CO4)CC2)CC1 [compound 137] | 0.254 | 9.43e-05 | 372 | > 10000 | 267 | 166 | – | – | – | – | – |
| C=CC(=O)N1CC(N2CCC(c3cc4c(cn3)OCc3c(ncnc3N3CCOCC3)N4)CC2)C1 [compound 48] | 0.232 | 5.9e-05 | 254 | > 10000 | 220 | 776 | – | – | – | – | – |
| C=CC(=O)N1CC(C2CCN(c3ccc4c(c3)Nc3ncnc(N5CCOCC5)c3CO4)CC2)C1 [compound 7] | – | – | – | > 10000 | 234 | 6760 | 1.79 | 0.000178 | 99.5 | – | – |
| C=CC(=O)N1CC(N2CCC(c3cc(F)c4c(c3)Nc3ncnc(-c5cnn(C)c5)c3[C@H](C)O4)CC2)C1 (single isomer, unassigned) [compound 53] | – | – | – | > 10000 | 260 | > 10000 | – | – | – | 3.8 | – |
| C=CC(=O)N1CC[C@H](N2CC(c3cc4c(c(C5CC5)c3)OCc3c(ncnc3N3CCS(=O)(=O)CC3)N4)C2)C1 (single isomer, unassigned) [compound 94] | 0.498 | 8.53e-05 | 171 | > 10000 | 167 | 537 | – | – | – | – | – |
| C=CC(=O)N1CC(N2CCC(c3ccc4c(c3)Nc3ncnc(N5CCOCC5)c3[C@@H](CC)O4)CC2)C1 (single isomer, unassigned) [compound 76] | 0.457 | 3.9e-05 | 85.3 | > 10000 | 124 | 1660 | – | – | – | – | – |
| C=CC(=O)N1CC(N2CCC(c3cc(F)c4c(c3)Nc3ncnc(N5CCOCC5)c3[C@H](C)O4)CC2)C1 (single isomer, unassigned) [compound 49] | 0.118 | 5.65e-05 | 478 | > 10000 | 180 | 178 | – | – | – | – | – |
| C=CC(=O)N1CC(N2CCC(c3cc4c(c(C)n3)O[C@@H](C)c3c(ncnc3N3CCS(=O)(=O)CC3)N4)CC2)C1 (single isomer, unassigned) [compound 86] | 0.117 | 6.46e-05 | 551 | > 10000 | 247 | 525 | – | – | – | – | – |
| C=CC(=O)N1CC(N2CCC(c3cc4c(cc3C#N)OCc3c(ncnc3N3CCOCC3)N4)CC2)C1 [compound 61] | 0.83 | 5.1e-05 | 61.4 | > 10000 | > 300 | 2000 | – | – | – | – | – |
| C=CC(=O)N1CC[C@@H](N2CC(c3cc4c(c(C5CC5)c3)O[C@H](C)c3c(ncnc3N3CCS(=O)(=O)CC3)N4)C2)C1 (single isomer, unassigned) [compound 96] | 0.0324 | 2.16e-05 | 665 | > 10000 | 233 | 525 | – | – | – | – | – |
| C=CC(=O)N1CC[C@@H](N2CC(c3cc4c(c(C5CC5)c3)OCc3c(ncnc3N3CCS(=O)(=O)CC3)N4)C2)C1 (single isomer, unassigned) [compound 93] | 0.277 | 6.26e-05 | 226 | > 10000 | > 300 | 427 | – | – | – | – | – |
| C=CC(=O)N1CC(N2CCCC(c3ccc4c(c3)Nc3ncnc(N5CCOCC5)c3CO4)C2)C1 (centres unmarked) [compound 35] | – | – | – | > 10000 | 175 | ~7940 | 2.05 | 8.56e-05 | 41.8 | – | – |
| C=CC(=O)N1CCC(N2CCN(c3cc(C)c4c(c3)Nc3ncnc(N5CCS(=O)(=O)CC5)c3CO4)CC2)CC1 [compound 89] | 0.128 | 5.45e-05 | 425 | > 10000 | 203 | 955 | – | – | – | – | – |
| C=CC(=O)N1CC(N2CCC(c3cc4c(c(C)n3)O[C@H](C)c3c(ncnc3N3CCS(=O)(=O)CC3)N4)CC2)C1 (single isomer, unassigned) [compound 85] | – | – | – | > 10000 | 240 | 67.6 | – | – | – | 725 | – |
| C=CC(=O)N1CC(N2CCC(c3cc(F)c4c(c3)Nc3ncnc(N5CCOCC5)c3[C@@H](C)O4)CC2)C1 (single isomer, unassigned) [compound 46] | 0.094 | 5.18e-05 | 667 | > 10000 | 175 | 209 | – | – | – | – | – |
| C=CC(=O)N1CC(N2C3CCC2CC(c2ccc4c(c2)Nc2ncnc(N5CCOCC5)c2CO4)C3)C1 (centres unmarked) [compound 40] | 0.16 | 5.56e-05 | – | > 10000 | 212 | 437 | – | – | – | – | 347 |
| CC#CC(=O)N1CCC(N2CC(c3cc(C)c4c(c3)Nc3ncnc(N5CCS(=O)(=O)CC5)c3CO4)C2)CC1 [compound 133] | 0.173 | 2.65e-05 | 153 | 8510 | 180 | 91.2 | – | – | – | – | – |
| C=CC(=O)N1CC(N2CCC(c3cc(Cl)c4c(c3)Nc3ncnc(N5CCOCC5)c3CO4)CC2)C1 [compound 42] | 0.0282 | 4.14e-05 | 1460 | > 10000 | > 300 | 372 | – | – | – | – | – |
| C=CC(=O)N1CC(N2CCC(c3ccc4c(c3)Nc3ncnc(N5CCOCC5)c3CO4)CC2C)C1 (centres unmarked) [compound 34] | – | – | – | > 10000 | 213 | 1000 | 0.258 | 0.000186 | 721 | – | – |
